Test results published in patent US9062041B2 (Bayer Intellectual Property GmbH, priority 2011, dated 2015).
pIC50: −log10 of the molar value.

Columns and labels:
Format in all cases: cell-based
[1] = biological target: EP4 subtype of the human PGE2 receptor (Homo sapiens, UniProt P35408); experiment: cAMP antagonism test on the human EP4 receptor (HTRF cAMP detection); details: selectivity towards hEP4, IC50 measured by cAMP antagonism test
Method in brief: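 Cells expressing human EP4 preincubated 20 min at RT with compound (0.8 nM–16.5 μM), then stimulated with PGE2 (0.3 nM in 3× solution, with IBMX) 60 min at RT. After lysis, cAMP measured by HTRF competition (665/620 nm ratio); antagonism seen as rise in FRET signal.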

[2] = biological target: EP2 subtype of the human PGE2 receptor (Homo sapiens, UniProt P43116); experiment: cAMP antagonism test on the human EP2 receptor (HTRF cAMP detection); details: hEP2 receptor, read-out: Antagonism hEP2 IC50
EP2 subtype of the human PGE2 receptor, sequence (P43116 whole entry): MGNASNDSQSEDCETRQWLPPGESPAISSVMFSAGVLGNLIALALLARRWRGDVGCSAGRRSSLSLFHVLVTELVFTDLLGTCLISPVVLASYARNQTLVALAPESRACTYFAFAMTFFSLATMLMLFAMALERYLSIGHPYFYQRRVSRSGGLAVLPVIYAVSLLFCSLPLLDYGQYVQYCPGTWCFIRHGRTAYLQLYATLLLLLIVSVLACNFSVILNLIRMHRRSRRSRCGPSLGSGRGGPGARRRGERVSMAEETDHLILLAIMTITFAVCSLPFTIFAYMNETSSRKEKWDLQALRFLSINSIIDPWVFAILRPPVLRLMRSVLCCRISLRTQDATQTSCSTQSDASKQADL
Method in brief: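 Cells expressing human EP2 preincubated 20 min at RT with compound (0.8 nM–16.5 μM), then stimulated 60 min with PGE2 (3× solution 1.5 nM) in PBS-IBMX. After 20 min lysis, cAMP measured by competitive HTRF with cAMP-d2 and Eu cryptate anti-cAMP antibody (665/620 nm ratio).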

[3] = biological target: T1, human PGD receptor (Homo sapiens, UniProt Q13258); experiment: cAMP antagonism test on the human prostaglandin D receptor (HTRF cAMP detection); details: selectivity towards hDP, IC50 measured by cAMP antagonism test
T1 sequence (Q13258 1-359): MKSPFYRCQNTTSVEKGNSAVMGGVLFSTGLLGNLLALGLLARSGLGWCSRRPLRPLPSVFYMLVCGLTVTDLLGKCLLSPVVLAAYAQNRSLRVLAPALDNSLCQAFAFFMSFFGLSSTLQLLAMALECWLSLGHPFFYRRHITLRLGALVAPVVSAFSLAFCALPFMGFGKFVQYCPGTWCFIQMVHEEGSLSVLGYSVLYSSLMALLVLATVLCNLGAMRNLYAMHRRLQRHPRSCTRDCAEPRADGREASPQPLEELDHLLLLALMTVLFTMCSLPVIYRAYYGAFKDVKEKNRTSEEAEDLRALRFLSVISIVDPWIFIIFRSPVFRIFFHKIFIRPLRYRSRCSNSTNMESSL
Method in brief: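 Cells pre-mixed with cAMP-d2 were preincubated with compound (0.8 nM–16.5 μM) for 20 min at RT, then stimulated with 3× PGD2 solution (6 nM, in PBS-IBMX) for 30 min at RT. After lysis (20 min), HTRF read at 665/620 nm; antagonism seen as rise in FRET ratio.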

EP4 subtype of the human PGE2 receptor, sequence (P35408 whole entry): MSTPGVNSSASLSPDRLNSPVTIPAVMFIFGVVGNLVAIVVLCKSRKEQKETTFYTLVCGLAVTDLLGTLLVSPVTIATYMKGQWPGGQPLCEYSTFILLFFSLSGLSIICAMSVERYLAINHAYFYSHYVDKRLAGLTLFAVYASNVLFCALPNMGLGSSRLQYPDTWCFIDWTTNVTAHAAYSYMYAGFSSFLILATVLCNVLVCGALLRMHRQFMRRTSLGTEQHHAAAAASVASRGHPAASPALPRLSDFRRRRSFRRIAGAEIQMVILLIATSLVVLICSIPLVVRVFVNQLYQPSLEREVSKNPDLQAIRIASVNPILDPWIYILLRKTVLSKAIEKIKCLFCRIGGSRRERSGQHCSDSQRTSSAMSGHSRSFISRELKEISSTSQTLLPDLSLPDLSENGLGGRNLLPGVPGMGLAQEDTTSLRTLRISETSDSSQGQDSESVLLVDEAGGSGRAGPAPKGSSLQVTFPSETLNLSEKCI

| Selectivity hEP2/hEP4 [1] | pIC50 [2] | Selectivity hEP2/hDP [3] | Compound |
| --- | --- | --- | --- |
| xxx (xxx > 100) | 7.99 | xxx (xxx > 100) | COCCNC(=O)c1ccc2nn(CC3CCN(C(=O)c4ccc5ccc(OC)cc5c4)CC3)cc2c1C [Example 344, N-(2-methoxyethyl)-2-{[1-(7-methoxy-2-naphthoyl)piperidin-4-yl]methyl}-4-methyl-2H-indazol-5-carboxamide] |
| xxx (xxx > 100) | 7.83 | xxx (xxx > 100) | COCCNC(=O)c1ccc2nn(CC3CCN(C(=O)c4ccc(Oc5ccccn5)cc4)CC3)cc2c1C [Example 346, N-(2-methoxyethyl)-4-methyl-2-({1-[4-(2-pyridyloxy)benzoyl]piperidin-4-yl}-methyl)-2H-indazol-5-carboxamide] |
| xxx (xxx > 100) | 8.10 | xxx (xxx > 100) | COCCNC(=O)c1ccc2nn(CC3CCN(C(=O)c4ccc(Oc5nccc(C(F)(F)F)n5)cc4)CC3)cc2c1C [Example 347, N-(2-methoxyethyl)-4-methyl-2-{[1-(4-{[4-(trifluoromethyl)pyrimidin-2-yl]-oxy}benzoyl)piperidin-4-yl]methyl}-2H-indazol-5-carboxamide] |
| xxx (xxx > 100) | 8.05 | xxx (xxx > 100) | COCCNC(=O)c1ccc2nn(CC3CCN(C(=O)c4nc5ccccc5s4)CC3)cc2c1C [Example 348, 2-{[1-(benzothiazol-2-ylcarbonyl)piperidin-4-yl]methyl}-N-(2-methoxyethyl)-4-methyl-2H-indazol-5-carboxamide] |
| xxx (xxx > 100) | 8.32 | xxx (xxx > 100) | COCCNC(=O)c1ccc2nn(CC3CCN(C(=O)c4ccc(Oc5ccc(C(F)(F)F)nc5)cc4)CC3)cc2c1C [Example 349, N-(2-methoxyethyl)-4-methyl-2-{[1-(4-{[6-(trifluoromethyl)pyridin-3-yl]oxy}-benzoyl)piperidin-4-yl]methyl}-2H-indazol-5-carboxamide] |
| xxx (xxx > 100) | 8.08 | xxx (xxx > 100) | COCCNC(=O)c1ccc2nn(CC3CCN(C(=O)c4ccc(Oc5cccc(C(F)(F)F)n5)cc4)CC3)cc2c1C [Example 350, N-(2-methoxyethyl)-4-methyl-2-{[1-(4-{[6-(trifluoromethyl)pyridin-2-yl]oxy}-benzoyl)piperidin-4-yl]methyl}-2H-indazol-5-carboxamide] |
| xxx (xxx > 100) | 8.16 | xxx (xxx > 100) | COCCNC(=O)c1ccc2nn(CC3CCN(C(=O)c4ccc(-c5ccc(OC)cc5)cc4)CC3)cc2c1C [Example 351, 2-({1-[(4′-methoxybiphenyl-4-yl)carbonyl]piperidin-4-yl}methyl)-N-(2-methoxy-ethyl)-4-methyl-2H-indazol-5-carboxamide] |
| xxx (xxx > 100) | 7.66 | xxx (xxx > 100) | COCCNC(=O)c1ccc2nn(CC3CCN(C(=O)c4nc(-c5ccccc5)no4)CC3)cc2c1C [Example 352, N-(2-methoxyethyl)-4-methyl-2-({1-[(3-phenyl-1,2,4-oxadiazol-5-yl)carbonyl]-piperidin-4-yl}methyl)-2H-indazol-5-carboxamide] |
| xxx (xxx > 100) | 7.30 | xxx (xxx > 100) | COCCNC(=O)c1ccc2nn(CC3CCN(C(=O)c4ccc(OC5CCOCC5)cc4)CC3)cc2c1C [Example 353, N-(2-methoxyethyl)-4-methyl-2-({1-[4-(3,4,5,6-tetrahydro-2H-pyran-4-yloxy)-benzoyl]piperidin-4-yl}methyl)-2H-indazol-5-carboxamide] |
| xxx (xxx > 100) | 8.23 | xxx (xxx > 100) | COCCNC(=O)c1ccc2nn(CC3CCN(C(=O)c4ncc(-c5ccccc5)o4)CC3)cc2c1C [Example 354, N-(2-methoxyethyl)-4-methyl-2-({1-[(5-phenyloxazol-2-yl)carbonyl]piperidin-4-yl}methyl)-2H-indazol-5-carboxamide] |
| xxx (xxx > 100) | 8.27 | xxx (xxx > 100) | COCCNC(=O)c1ccc2nn(CC3CCN(C(=O)c4ccc(Oc5cccc(C(F)(F)F)c5)cc4)CC3)cc2c1C [Example 355, N-(2-methoxyethyl)-4-methyl-2-[(1-{4-[3-(trifluoromethyl)phenoxy]benzoyl}-piperidin-4-yl)methyl]-2H-indazol-5-carboxamide] |
| xxx (xxx > 100) | 7.20 | xxx (xxx > 100) | COCCNC(=O)c1ccc2nn(CC3CCN(C(=O)c4ccc(Oc5ccc(C#N)cn5)cc4)CC3)cc2c1C [Example 356, 2-[(1-{4-[(5-cyanopyridin-2-yl)oxy]benzoyl}piperidin-4-yl)methyl]-N-(2-methoxyethyl)-4-methyl-2H-indazol-5-carboxamide] |
| xxx (xxx > 100) | 8.13 | xxx (xxx > 100) | COCCNC(=O)c1ccc2nn(CC3CCN(C(=O)c4ccc(Oc5ccc(Cl)cn5)cc4)CC3)cc2c1C [Example 357, 2-[(1-{4-[(5-chloropyridin-2-yl)oxy]benzoyl}piperidin-4-yl)methyl]-N-(2-methoxyethyl)-4-methyl-2H-indazol-5-carboxamide] |
| xxx (xxx > 100) | 8.10 | xxx (xxx > 100) | COCCNC(=O)c1ccc2nn(CC3CCN(C(=O)c4ccc(Oc5ccc(F)cc5F)cc4)CC3)cc2c1C [Example 358, 2-({1-[4-(2,4-difluorophenoxy)benzoyl]piperidin-4-yl}methyl)-N-(2-methoxy-ethyl)-4-methyl-2H-indazol-5-carboxamide] |
| xxx (xxx > 100) | 8.16 | xxx (xxx > 100) | COCCNC(=O)c1ccc2nn(CC3CCN(C(=O)c4ccc(Oc5ccc(F)c(F)c5)cc4)CC3)cc2c1C [Example 359, 2-({1-[4-(3,4-difluorophenoxy)benzoyl]piperidin-4-yl}methyl)-N-(2-methoxy-ethyl)-4-methyl-2H-indazol-5-carboxamide] |
| xxx (xxx > 100) | 8.20 | xxx (xxx > 100) | COCCNC(=O)c1ccc2nn(CC3CCN(C(=O)c4ccc(-c5ccc(C(F)(F)F)cc5)cc4)CC3)cc2c1C [Example 360, N-(2-methoxyethyl)-4-methyl-2-[(1-{[4′-(trifluoromethyl)biphenyl-4-yl]-carbonyl}piperidin-4-yl)methyl]-2H-indazol-5-carboxamide] |
| xxx (xxx > 100) | 8.29 | xxx (xxx > 100) | COCCNC(=O)c1ccc2nn(CC3CCN(C(=O)c4ccc(Oc5cccc(F)c5)cc4)CC3)cc2c1C [Example 361, 2-({1-[4-(3-fluorophenoxy)benzoyl]piperidin-4-yl}methyl)-N-(2-methoxyethyl)-4-methyl-2H-indazol-5-carboxamide] |
| xxx (xxx > 100) | 7.82 | xxx (xxx > 100) | COCCNC(=O)c1ccc2nn(CC3CCN(C(=O)c4ccc(OC(C)C)cc4F)CC3)cc2c1C [Example 362, 2-{[1-(2-fluoro-4-isopropoxybenzoyl)piperidin-4-yl]methyl}-N-(2-methoxy-ethyl)-4-methyl-2H-indazol-5-carboxamide] |
